According to the supplement of paper PMC10307832:

Legend:
Experiment in all cases: relative viability (nuclei count vs DMSO), 5 days (fraction); higher = more cells survive
[1] = compound: CCC1=CN=CN=C1N2CCN(CC2)CC3=NC4=C(N3)C=C(C=C4)C(F)(F)F + Nc1nc2[nH]cc(CCc3ccc(C(=O)N[C@@H](CCC(=O)O)C(=O)O)cc3)c2c(=O)[nH]1 [Pemetrexed] (partner 0.2 µM)
Summary of the method: (§1)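 Dosing by pin tool came one day after lung cancer cell lines were seeded in 1536-well plates, using either one drug or a fixed anchor-drug dose plus five library-drug doses (not always all listed) in √10 steps. After 5 days, nuclei were counted on 4× images. Relative viability is treated-well nuclei count divided by vehicle-well nuclei count, and values are medians of duplicate plates.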

[2] = compound: CCn1c(-c2nonc2N)nc2cnc(Oc3cccc(NC(=O)c4ccc(OCCN5CCOCC5)cc4)c3)cc21 + Nc1ncn([C@H]2C[C@H](O)[C@@H](CO)O2)c(=O)n1 [Decitabine] (partner 2 µM)
Summary of the method: as §1

[3] = compound: N=C1NC(=O)/C(=C/c2ccc(O)cc2)S1 [Mirin] + CS(=O)(=O)CCNCc1ccc(-c2ccc3ncnc(Nc4ccc(OCc5cccc(F)c5)c(Cl)c4)c3c2)o1 [Lapatinib] (partner 2 µM)
Summary of the method: as §1

[4] = compound: N=C1NC(=O)/C(=C/c2ccc(O)cc2)S1 [Mirin] + Cc1nc(NC(=O)N2CCC[C@H]2C(N)=O)sc1-c1ccnc(C(C)(C)C(F)(F)F)c1 [Alpelisib] (partner 2 µM)
Summary of the method: as §1

UMC-11
relative viability ([1]; first compound 0.04 µM): 0.772
relative viability ([1]; first compound 0.1265 µM): 0.767
relative viability ([1]; first compound 0.4 µM): 0.83
relative viability ([1]; first compound 1.265 µM): 0.761
relative viability ([1]; first compound 4 µM): 0.724
relative viability ([2]; first compound 0.04 µM): 0.596
relative viability ([2]; first compound 0.1265 µM): 0.528
relative viability ([2]; first compound 0.4 µM): 0.423
relative viability ([2]; first compound 1.265 µM): 0.125
relative viability ([2]; first compound 4 µM): 0.269
relative viability ([3]; first compound 0.25 µM): 0.958
relative viability ([3]; first compound 2.5 µM): 0.985
relative viability ([3]; first compound 7.906 µM): 0.548
relative viability ([3]; first compound 25 µM): 0.684
relative viability ([4]; first compound 0.25 µM): 1.03
relative viability ([4]; first compound 0.7906 µM): 0.958
relative viability ([4]; first compound 2.5 µM): 0.96
relative viability ([4]; first compound 7.906 µM): 0.935
relative viability ([4]; first compound 25 µM): 0.572
